The values that follow come from patent US8128963B2, “Methods for treating ischemic disorders using carbon monoxide” (The Trustees of Columbia University in the City Of New York, priority 1999, dated 2012).

For one data set, the system named is acute ischemic stroke. The conditions noted are these: within 7 hours of stroke onset; cited from earlier work.
In another data set the test system is intracerebral hemorrhage. The class given is in vivo, mouse. How it is done: The hemoglobin content of brains subjected to the experimental procedures below was quantified using a spectrophotometric assay as follows. Whole brain tissue was obtained from freshly euthanized control or experimental animals, and each brain was treated individually as follows. Distilled water (250 μl) was added to each brain, followed by homogenization, for 30 sec (Brinkman Instruments, Inc., Westbury, N.Y.), sonification on ice with a pulse ultrasonicator for 1 minute (SmithKline Corporation, Collegeville, Pa.), and centrifugation at 13,000 rpm for 30 minutes (Baxter Scientific Products, Deerfield, Ill.). After collecting the hemoglobin-containing supernatant, 80 μl of Drabkin's reagent (purchased from Sigma Diagnostics, St. Louis, Mo; K3Fe(CN)6 200 mg/L, KCN 50 mg/L, NaHCO3 1 g/L, pH 8.6 ^25) was added to a 20 μl aliquot and allowed to stand for 15 minutes. This reaction converts hemoglobin to cyanomethemoglobin, which has an absorbance peak at 540 nm, and whose concentration can then be assesses by the optical density of the solution at ≈550 nm wavelength ^26. To validate that the measured absorbance following these procedures reflects the amount of hemoglobin, known quantities of bovine erythrocyte hemoglobin (Sigma, St. Louis, Mo.) were analyzed using similar procedures alongside every brain tissue assay. As an additional measure, blood was obtained from control mice by cardiac puncture following anesthesia. Incremental aliquots of this blood were then added to freshly homogenized brain tissue obtained from untreated mice to generate a standard absorbance curve.
Focal cerebral ischemia was produced in animals by transient right middle cerebral artery occlusion using a method previously described in detail ^28,29. Briefly, a heat-blunted 12 or 13 mm 5-0 or 6-0 gauge nylon suture was passed into the right internal carotid artery to the level of the middle cerebral artery. After 45 minutes, the occluding suture was removed to reestablish perfusion. Immediately following removal of the occluding suture, animals received either intravenous tissue plasminogen activator (10 mg/kg in 0.2 ml normal saline solution, Stroke+rt-PA) or normal saline solution (Stroke+Saline) given by dorsal penile vein injection. At 24 hours, brain tissue was harvested immediately after rapid anesthetized decapitation. […] The other half of each brain was immersed in saline for an identical duration, and then subjected to the procedures described above for the spectrophotometric hemoglobin assay.
The degree of ICH was first scored visually by a blinded observer. […] Sections were inspected by a blinded observer and brains were given an ICH score from a graded scale based on maximal hemorrhage diameter seen on any of the sections [ICH score 0, no hemorrhage; 1, <1 mm; 2, 1-2 mm; 3, >2-3 mm; 4, >3 mm]. Slices from each brain were then pooled, homogenized, and then treated according to the procedures described above for the spectrophotometric hemoglobin assay.
Spectrophotometric hemoglobin assay and visual ICH score: ICH was quantified by a spectrophotometric-based assay which we have developed and validated ^11,12. In brief, mouse brains were homogenized, sonicated, centrifuged, and methemoglobin in the supernatants converted (using Drabkin's reagent) to cyanomethemoglobin, the concentration of which was assessed by measuring O.D. at 550 nm against a standard curve generated with known amounts of hemoglobin. […]

For another data set, the system named is stroke. As to conditions: within 2 hours of stroke; cited from earlier work.
A further data set concerns mouse model of stroke. The data set is described as follows: Mouse model of stroke, thrombolytic versus P-selectin antagonist. The conditions noted are these: in vivo. The text has this: The present invention provides for treatment of ischemic disorders by inhibiting the ability of the neutrophil, monocyte or other white blood cell to adhere properly. This may be accomplished removing the counter ligand, such as CD18. […] The endothelial cells on the surface of the vessels in the subject may also be a target for treatment. […] The present invention may be used in conjunction with a thrombolytic therapy to increase efficacy of such therapy or to enable lower doses of such therapy to be administered to the subject so as to reduce side effects of the thrombolytic therapy.

The next data set has as its target T1, Factor IXa (Homo sapiens, UniProt P00740).
T1 construct: made in house
The experiment in a line: Procoagulant activity of the prepared Factor IXai. It counts as biochemical. The conditions noted are these: final product. How it is done: Preparation of Factor IXai ^13: Factor IXai was prepared by selectively modifying the active site histidine residue on Factor IXa, using dansyl-glu-gly-arg-chloromethylketone. Proplex was applied to a preparative column containing immobilized calcium-dependent monoclonal antibody to Factor IX. The column was washed, eluted with EDTA-containing buffer, and Factor IX in the eluate (confirmed as a single band on SDS-PAGE) was then activated by applying Factor XIa (incubating in the presence of CaCl2). Purified Factor IXa was reacted with a 100-fold molar excess of dansyl-glu-gly-arg chloromethylketone, and the mixture dialyzed. […] This material (Factor IXai) was then used for experiments following filtration (0.2 μm) and chromatography on DeToxi-gel columns, to remove any trace endotoxin contamination (in sample aliquots, there was no detectable lipopolysaccharide). IXai was subsequently frozen into aliquots at −80° C. until the time of use. For those experiments in which IXai was used, it was given as a single intravenous bolus at the indicated times and at the indicated doses.

For data set [1], the system named is platelet accumulation in ipsilateral hemisphere. The data set is described as follows: 111Indium-platelet accumulation in stroke. The class given is in vivo, mouse. The conditions noted are these: 300 μg/kg prior to occlusion, vs vehicle. How it is done:
^111Indium-platelet studies: Platelet accumulation was determined using ^111Indium labeled platlets, collected and prepared as previously described ^8. Immediately prior to surgery, mice were given 5×10^6 111In-labeled-platelets intravenously; deposition was quantified after 24 hours by as ipsilateral cpm/contralateral cpm.

For data set [2], the system named is left circumflex coronary artery occlusion. As to conditions: dogs; cited from earlier work.
In data set [3] the test system is mouse model of cerebral ischemia and reperfusion (stroke). It counts as in vivo. As for the experimental part: In stroke and other ischemic disorders, there may be clinical benefit derived by lysing an existing thrombus, but there is also the potentially devastating complication of hemorrhage. In the current experiments, the mouse model of cerebral ischemia and reperfusion (stroke) was used. […]
Murine stroke model. Transient focal cerebral ischemia was induced in mice by intralumenal occlusion of the middle cerebral artery (45 minutes) and reperfusion (22 hrs) as previously reported ^7. Serial measurements of relative cerebral blood flow (CBF) were recorded via laser doppler flowmetry ^7, and infarct volumes (% ipsilateral hemisphere) determined by planimetric/volumetric analysis of triphenyl tetrazolium chloride (TTC)-stained serial cerebral sections ^7.
Preparation of Factor IXai ^13: Factor IXai was prepared by selectively modifying the active site histidine residue on Factor IXa, using dansyl-glu-gly-arg-chloromethylketone. Proplex was applied to a preparative column containing immobilized calcium-dependent monoclonal antibody to Factor IX. […] Purified Factor IXa was reacted with a 100-fold molar excess of dansyl-glu-gly-arg chloromethylketone, and the mixture dialyzed. […] IXai was subsequently frozen into aliquots at −80° C. until the time of use. For those experiments in which IXai was used, it was given as a single intravenous bolus at the indicated times and at the indicated doses.

The subject of a further data set is cross-linked fibrin. The data set is described as follows: Fibrin immunoblotting in stroke brain. The class given is in vivo, mouse. The conditions noted are these: 300 μg/kg prior to stroke. How it is done:
Fibrin immunoblotting/immunostaining. The accumulation of fibrin was measured following sacrifice (of fully heparinized animals) using immunoblotting/immunostaining procedures which have been recently described and validated ^9. Because fibrin is extremely insoluble, brain tissue extracts where prepared by plasmin digestion, then applied to a standard SDS-polyacrylamide gel for electrophoresis, followed by immunoblotting using a polyclonal rabbit anti-human antibody prepared to gamma-gamma chain dimers present in cross-linked fibrin which can detect murine fibrin, with relatively little cross-reactivity with fibrinogen ^10. Fibrin accumulation was reported as an ipsilateral to contralateral ratic. In additional experiments, brains were embedded in paraffin, sectioned, and immunostained using the same anti-fibrin antibody.
A general note: In western blotting, separated proteins are transferred to a membrane and probed.

A short description of a further data set: Protime and APTT in mice. It counts as in vivo, mouse. As to conditions: 300 μg/kg, n=7. An excerpt: The potency of Factor IXai as an anticoagulant agent stems from the integral role of activated Factor IX in the coagulation cascade.
Where [4] appears, read: 300 μg/kg i.v. just prior to surgery, 24 hours.
[5] abbreviates: Table II, Experimental group mean.

“Also recorded” adds a separate entry of the source.

T1 sequence (P00740 227-461 limits assumed): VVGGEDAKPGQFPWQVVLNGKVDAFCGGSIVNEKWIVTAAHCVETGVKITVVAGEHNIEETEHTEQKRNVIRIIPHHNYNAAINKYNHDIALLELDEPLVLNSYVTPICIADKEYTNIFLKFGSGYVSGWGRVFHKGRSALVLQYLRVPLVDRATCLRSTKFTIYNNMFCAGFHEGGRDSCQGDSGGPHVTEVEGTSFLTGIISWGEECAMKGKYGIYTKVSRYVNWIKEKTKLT
T1 sequence (P00740 47-191 partner limits assumed): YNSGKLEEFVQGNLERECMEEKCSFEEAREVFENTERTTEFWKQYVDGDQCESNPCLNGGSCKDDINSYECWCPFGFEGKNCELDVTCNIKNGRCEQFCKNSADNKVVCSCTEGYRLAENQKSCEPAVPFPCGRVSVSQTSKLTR

“rt-PA: recombinant human tissue plasminogen activator, Genentech”: the “rate of hemorrhagic conversion” value in the data set on acute ischemic stroke is reported as 7-20%. Moreover, the “increase of OD vs physiological saline solution” value with intracerebral hemorrhage (i.v. after reperfusion, 10 mg/kg) is on record as 1.8 fold. Besides, the “visual ICH score” value in the data set with intracerebral hemorrhage (stroke model, rt-PA after reperfusion) is given as “increase in the visual ICH score”. Moreover, the “reduction of infarct size” value in the data set on stroke was “up to 77%”. Also, in the data set with mouse model of stroke, the hemorrhaging entry is on record as “some visible hemorrhaging” and the stroke disorder entry is on record as “improvement of the stroke disorder”.

In the case of “Factor IXai: Factor IXa with active site histidine modified by dansyl-glu-gly-arg-chloromethylketone; competitive inhibitor of Factor IXa”, in the data set with Factor IXa, the procoagulant activity entry was “devoid of procoagulant activity”. Besides, the “accumulation of radiolabelled platelets in the ipsilateral hemisphere” value in data set [1] was “significant reduction”. Besides, in data set [2], the “activated partial thromboplastin time (APTT)” value was “did not prolong” and the “progressive coronary artery occlusion after electric current” value was “effective at preventing progressive coronary artery occlusion”. Also, the apparent intracerebral hemorrhage entry in the data set on intracerebral hemorrhage (setting [4]) is on record as “free of apparent intracerebral hemorrhage”. The “ICH (spectrophotometric assay, corroborated by visual score)” value with intracerebral hemorrhage (highest dose tested, 1200 μg/kg) is reported as “increase in ICH”. For the same substance, the “ICH (spectrophotometric hemoglobin assay)” value in the data set on intracerebral hemorrhage (mouse, in vivo) was “no significant increase in ICH”. The cerebral infarction volume result in data set [3] (300 μg/kg given after MCA occlusion, following removal of the occluding suture, vs vehicle) is on record as “significantly reduce cerebral infarction volumes”. For the same substance, in data set [3] (300 μg/kg i.v. immediately prior to stroke, vs controls), the cerebral infarct volume entry is listed as “smaller infarct volumes; also recorded: reduce cerebral infarct volumes”. In data set [3] (setting [4]), the mortality entry is listed as “reduced mortality” and the neurological deficits entry is reported as “less neurological deficits”. Moreover, in [3] (setting [5]), the inf vol is recorded as 3.47, the “occ dop 1” value came out at 0.16, the “occ dop 2” value worked out at 0.43 and the reper dop was 0.53. In data set [3] (Table II, Experimental group mean, at sacrifice), this substance came in with a sac dop of 0.75. Moreover, the dopp in [3] (Table II, Experimental group mean, baseline relative doppler flow) was found to be 1.04. In data set [3] (Table II, Experimental group mean, neurological grade), the grade stood at 1.67. The “optimal dose (infarct volume dose-response)” value in data set [3] (doses 300, 600, 1200 μg/kg immediately prior to stroke) was found to be 0.6 mg/kg. Further, the “I/C Ratio” value in data set [3] (mouse, in vivo) turned out to be 1.08. Moreover, the “cerebral blood flow / perfusion at 24 hours” value in data set [3] (mouse, in vivo, iv) is “improved cerebral perfusion; also recorded: significant increase in CBF”. Also, the “ipsilateral accumulation of fibrin (immunoblot)” value with cross-linked fibrin was “no apparent increase”. In the data set “Protime and APTT in mice”, the APTT amounted to 79.9±8.9 and the “PT (protime)” value is recorded as 13.4±0.7.
